# Laboratory results taken from patent US9211310B2, “Use of a Chinese medicine composition in preparing medicaments for treating secondary prevention of myocardial infarction” (TASLY PHARMACEUTICAL GROUP CO., LTD, priority 2010, dated 2015).
# Tested on: patients after acute myocardial infarction
# Assay: Life quality, Seattle Angina Questionnaire (SAQ), same clinical trial
# Assay type: in vivo, human
# Details: PP
# Text: 3508 patients who were in accordance with the diagnostic standards of AMI for 28 days to 2 years and differentiated as Qi deficiency and blood stagnation syndrome by TCM were studied. 0.5 g Chinese medicine composition prepared by the method of EXAMPLE 1 (Coded as QSYQ) was administrated half an hour after meal, 3 times per day.
# There were 19 questions in the Seattle angina questionnaire (SAQ), including 5 parts: physical limitation (PL), anginal stability (AS), anginal frequency (AF), treatment satisfaction (TS) and disease perception (DP). After being given necessary explanation by doctors, the questions were answered independently by patients.
# They included the overall survival time, angina pectoris score, TCM symptom score and life quality score, where angina pectoris score, TCM symptom score and life quality score were evaluated at randomization, in 1st, 3rd, 6th, 9th, 12th month after treatment and 18th month after follow-up.
# All evaluation results of SAQ were described during the period of observation, and Wilcoxon rank sum test was used for inter-group comparison.
# The evaluation results in the SAQ were depicted in different observations, and inter-group comparison was tested by Wilcoxon Rank-sum test.
smiles,measurement,setting,value
"CC(=O)Oc1ccccc1C(=O)O [Control group, aspirine]","SAQ Question 1-1 Moderately limited, percent of patients",6 months after treatment,(0.28%)
same,"SAQ Question 1-1 Not limited, number of patients",6 months after treatment,1368
same,"SAQ Question 1-1 Not limited, percent of patients",6 months after treatment,(94.34%)
same,"SAQ Question 1-1 Other reasons, number of patients",6 months after treatment,3
same,"SAQ Question 1-1 Other reasons, percent of patients",6 months after treatment,(0.21%)
same,"SAQ Question 1-1 Severely limited, number of patients",6 months after treatment,0
same,"SAQ Question 1-1 Severely limited, percent of patients",6 months after treatment,(0.00%)
same,"SAQ Question 1-1 Slightly limited, number of patients",6 months after treatment,53
same,"SAQ Question 1-1 Slightly limited, percent of patients",6 months after treatment,(3.66%)
same,"SAQ Question 1-2 Mildly limited, number of patients",6 months after treatment,19
same,"SAQ Question 1-2 Mildly limited, percent of patients",6 months after treatment,(1.31%)
same,"SAQ Question 1-2 Moderately limited, number of patients",6 months after treatment,6
same,"SAQ Question 1-2 Moderately limited, percent of patients",6 months after treatment,(0.41%)
same,"SAQ Question 1-2 Not limited, number of patients",6 months after treatment,1352
same,"SAQ Question 1-2 Not limited, percent of patients",6 months after treatment,(93.24%)
same,"SAQ Question 1-2 Other reasons, number of patients",6 months after treatment,6
same,"SAQ Question 1-2 Other reasons, percent of patients",6 months after treatment,(0.41%)
same,"SAQ Question 1-2 Severely limited, number of patients",6 months after treatment,1
same,"SAQ Question 1-2 Severely limited, percent of patients",6 months after treatment,(0.07%)
same,"SAQ Question 1-2 Slightly limited, number of patients",6 months after treatment,66
same,"SAQ Question 1-2 Slightly limited, percent of patients",6 months after treatment,(4.55%)
same,"SAQ Question 1-6: Mildly limited, patients (%)",6 months after treatment,(16.24%)
same,"SAQ Question 1-6: Moderately limited, patients (%)",6 months after treatment,(12.07%)
same,"SAQ Question 1-6: Not limited, patients (%)",6 months after treatment,(34.35%)
same,"SAQ Question 1-6: Other reasons, patients (%)",6 months after treatment,(1.11%)
same,"SAQ Question 1-6: Severely limited, patients (%)",6 months after treatment,(3.19%)
same,"SAQ Question 1-6: Slightly limited, patients (%)",6 months after treatment,(33.03%)
same,"SAQ Question 1-7: Mildly limited, patients (%)",6 months after treatment,(21.45%)
same,"SAQ Question 1-7: Moderately limited, patients (%)",6 months after treatment,(12.58%)
same,"SAQ Question 1-7: Not limited, patients (%)",6 months after treatment,(14.47%)
same,"SAQ Question 1-7: Other reasons, patients (%)",6 months after treatment,(3.70%)
same,"SAQ Question 1-7: Severely limited, patients (%)",6 months after treatment,(14.88%)
same,"SAQ Question 1-7: Slightly limited, patients (%)",6 months after treatment,(32.91%)
same,"SAQ Question 1-8: Mildly limited, patients (%)",6 months after treatment,(25.91%)
same,"SAQ Question 1-8: Moderately limited, patients (%)",6 months after treatment,(16.01%)
same,"SAQ Question 1-8: Not limited, patients (%)",6 months after treatment,(10.81%)
same,"SAQ Question 1-8: Other reasons, patients (%)",6 months after treatment,(3.79%)
same,"SAQ Question 1-8: Severely limited, patients (%)",6 months after treatment,(18.96%)
same,"SAQ Question 1-8: Slightly limited, patients (%)",6 months after treatment,(24.51%)
same,"8th question: Mostly satisfied, patients (%)","6 months after treatment, second line of the scale",(1.58%)
same,"8th question: Dissatisfied, patients (%)",9 months after treatment,(0.28%)
same,"8th question: Highly satisfied, patients (%)",9 months after treatment,(23.18%)
same,"8th question: Mostly dissatisfied, patients (%)",9 months after treatment,(1.18%)
same,"8th question: Mostly satisfied, patients (%)",9 months after treatment,(58.78%)
same,"8th question: Partly satisfied, patients (%)",9 months after treatment,(16.59%)
same,"9th question: Few, patients (%)",9 months after treatment,(38.61%)
same,"9th question: Mild, patients (%)",9 months after treatment,(32.78%)
same,"9th question: Moderate, patients (%)",9 months after treatment,(7.01%)
same,"9th question: Severe, patients (%)",9 months after treatment,(0.35%)
same,"9th question: Uneffective, patients (%)",9 months after treatment,(21.25%)
same,"10th question: Dissatisfied, patients (%)",9 months after treatment,(18.81%)
same,"10th question: Highly satisfied, patients (%)",9 months after treatment,(6.18%)
same,"10th question: Mostly dissatisfied, patients (%)",9 months after treatment,(19.99%)
same,"10th question: Mostly satisfied, patients (%)",9 months after treatment,(29.22%)
same,"10th question: Partly satisfied, patients (%)",9 months after treatment,(25.82%)
same,"11th question: Continuously worried, patients (%)",9 months after treatment,(2.43%)
same,"11th question: No worried, patients (%)",9 months after treatment,(6.11%)
same,"11th question: Occasionally worried, patients (%)",9 months after treatment,(42.40%)
same,"11th question: Often worried, patients (%)",9 months after treatment,(11.73%)
same,"11th question: Seldom worried, patients (%)",9 months after treatment,(37.34%)
same,"SAQ 4th question, 1-2 times per week: % of patients",9 months after treatment,(15.99%)
same,"SAQ 4th question, 1-2 times per week: number of patients",9 months after treatment,230
same,"SAQ 4th question, 1-3 times per week: % of patients",9 months after treatment,(3.41%)
same,"SAQ 4th question, 1-3 times per week: number of patients",9 months after treatment,49
same,"SAQ 4th question, <1 time per week: % of patients",9 months after treatment,(14.95%)
same,"SAQ 4th question, <1 time per week: number of patients",9 months after treatment,215
same,"SAQ 4th question, Not used: % of patients",9 months after treatment,(61.54%)
same,"SAQ 4th question, Not used: number of patients",9 months after treatment,885
same,"SAQ 4th question, ≧3 times per week: % of patients",9 months after treatment,(4.03%)
same,"SAQ 4th question, ≧3 times per week: number of patients",9 months after treatment,58
same,"SAQ 4th question, ≧4 times per day: % of patients",9 months after treatment,(0.07%)
same,"SAQ 4th question, ≧4 times per day: number of patients",9 months after treatment,1
same,"SAQ 5th question, 1-2 times per week: % of patients",9 months after treatment,(30.04%)
same,"SAQ 5th question, 1-2 times per week: number of patients",9 months after treatment,432
same,"SAQ 5th question, 1-3 times per day: % of patients",9 months after treatment,(6.68%)
same,"SAQ 5th question, 1-3 times per day: number of patients",9 months after treatment,96
same,"SAQ 5th question, <1 time per week: % of patients",9 months after treatment,(28.65%)
